Assays:
CN1E1 [1] = tested on: T1, CN1E1; test: ester hydrolysis kinetics; type: biochemical, uncultured bacterium; conditions: 5 mM EPPS pH 8.0, 40°C
T1 construct: catalytic triad Ser155, Asp250, His280
Source text: ester hydrolysis kinetics on CN1E1

CN1E1 [2] = tested on: T1, CN1E1; test: ester hydrolysis kinetics, p-nitrophenol release; type: biochemical, uncultured bacterium; conditions: pH 7.0 (b12; table heading says pH 8.0), 40°C
Source text: ester hydrolysis kinetics, p-nitrophenol release on CN1E1

| Compound | Km (CN1E1 [1]) [µM] | Km (CN1E1 [2]) [µM] |
| --- | --- | --- |
| CC(=O)OC[C@H]1OC=C[C@@H](OC(C)=O)[C@@H]1OC(C)=O [Tri-O-acetyl-D-glucal] | 1080 ± 50 |  |
| COC(=O)CBr [Methyl bromoacetate] | 1700 ± 90 |  |
| CCCCOC(C)=O [Butyl acetate] | 2100 ± 170 |  |
| COC(=O)c1cc2ccccc2c2ccccc12 [Methyl phenanthrene-9-carboxylate] | 530 ± 30 |  |
| COC(=O)c1ccccc1C(=O)OC [Dimethyl phthalate] | 1590 ± 100 |  |
| COC(=O)c1ccc2ccc3ccccc3c2c1 [Methyl phenanthrene-3-carboxylate] | 1600 ± 90 |  |

Second part, the compound after the results:

| Km (CN1E1 [1]) [µM] | Km (CN1E1 [2]) [µM] | Compound |
| --- | --- | --- |
| 710 ± 60 |  | Naphthalene carboxylic acid methyl ester |
| 1060 ± 60 |  | COC(=O)/C=C/c1cc(O)ccc1O [2,5-Dihydroxycinnamic acid methyl ester] |
| 940 ± 50 |  | CC(=O)Oc1ccccc1 [Phenyl acetate] |
| 1640 ± 80 |  | CC(=O)OCC(COC(C)=O)OC(C)=O [Triacetin] |
| 640 ± 60 |  | O=Cc1ccc(C(=O)OCc2ccccc2)cc1 [Benzoic acid, 4-formyl-, phenylmethyl ester] |
| 1470 ± 50 |  | COC(=O)c1ccc2cc3ccccc3cc2c1 [Anthracene-2-carboxylic acid methyl ester] |
|  | 190 ± 10 | CC(=O)Oc1ccc([N+](=O)[O-])cc1 [pNP-acetate] |
| 1140 ± 60 |  | CCOC(=O)c1ccc(O)c(O)c1 [Protocatechuic acid ethyl ester] |

— publication PMC3937722, “Biochemical studies on a versatile esterase that is most catalytically active with polyaromatic esters” (Microbial Biotechnology, 2014)
